Key:
Acetylcholinesterase = molecular target: T1, Acetylcholinesterase (Mus musculus, UniProt P21836); assay: Inhibition of AChE in Swiss mouse brain using acetylthiocholine iodide as substrate incubated for 10 mins followed by substrate addition and measured after 10 mins; type: tissue-based
T1 sequence (P21836 whole entry): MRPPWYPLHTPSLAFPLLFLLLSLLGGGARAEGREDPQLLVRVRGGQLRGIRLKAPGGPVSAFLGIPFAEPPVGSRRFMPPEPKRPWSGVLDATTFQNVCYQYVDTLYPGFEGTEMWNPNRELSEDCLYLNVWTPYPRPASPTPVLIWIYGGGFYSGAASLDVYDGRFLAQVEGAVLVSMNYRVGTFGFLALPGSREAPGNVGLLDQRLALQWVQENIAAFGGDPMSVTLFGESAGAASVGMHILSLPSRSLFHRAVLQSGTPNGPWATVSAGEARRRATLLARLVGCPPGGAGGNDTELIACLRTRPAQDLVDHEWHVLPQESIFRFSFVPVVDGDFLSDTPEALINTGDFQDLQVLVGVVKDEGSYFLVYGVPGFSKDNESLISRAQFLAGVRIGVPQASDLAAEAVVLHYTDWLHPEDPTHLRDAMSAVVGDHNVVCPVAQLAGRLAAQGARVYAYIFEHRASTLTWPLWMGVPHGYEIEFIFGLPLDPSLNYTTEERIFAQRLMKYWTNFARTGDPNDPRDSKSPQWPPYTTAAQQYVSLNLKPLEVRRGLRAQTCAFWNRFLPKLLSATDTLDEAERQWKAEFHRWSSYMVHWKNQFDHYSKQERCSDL

Cholinesterase = Cholinesterase (Mus musculus, UniProt Q03311)
Description: Inhibition of BuChE in Swiss mouse serum using butyrylthiocholine iodide as substrate incubated for 10 mins followed by substrate addition and measured after 10 mins

Vero = assay: cells; settings: Chlorocebus sabaeus, 24 h
Description: Cytotoxicity against monkey Vero cells assessed as reduction in cell viability incubated for 24 hrs by MTT assay

HepG2 = assay: cells; settings: Homo sapiens, HepG2, 24 h
Description: Cytotoxicity against human HepG2 cells assessed as reduction in cell viability incubated for 24 hrs by MTT assay

C6 = assay: cells; settings: Rattus norvegicus, C6, 24 h
Description: Cytotoxicity against rat C6 cells assessed as reduction in cell viability incubated for 24 hrs by MTT assay

in vitro [1] = settings: PAMPA
Description: Effective permeability of compound incubated for 8 hrs by PAMPA

in vitro [2] = settings: PAMPA; remark: listed apart in the source
Description: Fraction absorbed of the compound by PAMPA

[3] = Selectivity index, ratio of IC50 for monkey Vero cells to IC50 for inhibition of BuChE in Swiss mouse serum
[4] = Selectivity index, ratio of IC50 for human HepG2 cells to IC50 for inhibition of BuChE in Swiss mouse serum
[5] = Selectivity index, ratio of IC50 for rat C6 cells to IC50 for inhibition of BuChE in Swiss mouse serum
[6] = Selectivity index, ratio of IC50 for monkey Vero cells to IC50 for inhibition of AChE in Swiss mouse brain
[7] = Selectivity index, ratio of IC50 for human HepG2 cells to IC50 for inhibition of AChE in Swiss mouse brain
[8] = Selectivity index, ratio of IC50 for rat C6 cells to IC50 for inhibition of AChE in Swiss mouse brain

Cholinesterase, sequence (Q03311 whole entry): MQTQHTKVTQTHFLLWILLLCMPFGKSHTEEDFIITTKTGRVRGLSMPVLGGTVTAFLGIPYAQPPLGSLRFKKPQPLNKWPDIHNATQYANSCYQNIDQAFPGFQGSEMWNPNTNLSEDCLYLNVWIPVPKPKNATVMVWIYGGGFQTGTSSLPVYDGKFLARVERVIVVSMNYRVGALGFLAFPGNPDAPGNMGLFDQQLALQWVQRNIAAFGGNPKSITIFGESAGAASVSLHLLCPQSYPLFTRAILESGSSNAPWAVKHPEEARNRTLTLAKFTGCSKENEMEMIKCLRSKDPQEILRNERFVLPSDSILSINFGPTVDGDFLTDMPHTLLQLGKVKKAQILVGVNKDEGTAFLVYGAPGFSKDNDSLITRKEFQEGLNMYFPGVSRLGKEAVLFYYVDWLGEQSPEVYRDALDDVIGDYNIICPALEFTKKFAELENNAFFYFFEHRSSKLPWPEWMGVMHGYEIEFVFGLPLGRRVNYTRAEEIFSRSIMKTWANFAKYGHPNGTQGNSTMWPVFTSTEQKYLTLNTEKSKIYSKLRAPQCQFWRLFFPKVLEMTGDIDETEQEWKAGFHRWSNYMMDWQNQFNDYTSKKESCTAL

c1ccc(-c2nc(-c3ccccc3)c(-c3ccccc3)[nH]2)cc1
IC50 (Acetylcholinesterase): > 10 µM
IC50 (Cholinesterase): > 10 µM

CC1(C)O[C@H]2O[C@H](CNCCCCCCCn3c(-c4ccccc4)nc(-c4ccccc4)c3-c3ccccc3)[C@H](O)[C@H]2O1
IC50 (Acetylcholinesterase): > 10 µM
IC50 (Cholinesterase): 0.4 µM

CC1(C)O[C@H]2O[C@H](CNCCCCCCCCn3c(-c4ccccc4)nc(-c4ccccc4)c3-c3ccccc3)[C@H](O)[C@H]2O1
IC50 (Acetylcholinesterase): > 10 µM
IC50 (Cholinesterase): 1.3 µM

CC1(C)O[C@H]2O[C@H](CNCCCCCCn3c(-c4ccccc4)nc(-c4ccccc4)c3-c3ccccc3)[C@H](O)[C@H]2O1
IC50 (Acetylcholinesterase): > 10 µM
IC50 (Cholinesterase): 0.71 µM

CC1(C)O[C@H]2O[C@H](CNCCCCn3c(-c4ccccc4)nc(-c4ccccc4)c3-c3ccccc3)[C@H](O)[C@H]2O1
IC50 (Acetylcholinesterase): > 10 µM
IC50 (Cholinesterase): 0.3 µM

CC1(C)O[C@H]2[C@@H](O1)[C@@H](CNCCCCCCn1c(-c3ccccc3)nc(-c3ccccc3)c1-c1ccccc1)O[C@@H]1OC(C)(C)O[C@@H]12
IC50 (Acetylcholinesterase): > 10 µM
IC50 (Cholinesterase): 0.17 µM
IC50 (Vero): > 250 µM
IC50 (HepG2): > 250 µM
IC50 (C6): > 250 µM
Papp at 8 h (in vitro [1]): 0.54 ×10⁻⁶ cm/s
Fa (in vitro [2]): 5.9%

CC1(C)O[C@H]2O[C@H](CNCCCCCn3c(-c4ccccc4)nc(-c4ccccc4)c3-c3ccccc3)[C@H](O)[C@H]2O1
IC50 (Acetylcholinesterase): > 10 µM
IC50 (Cholinesterase): 0.28 µM
IC50 (Vero): 115 µM
IC50 (HepG2): 116 µM
IC50 (C6): > 250 µM

CC1(C)O[C@H]2[C@@H](O1)[C@@H](CNCCCCCCCn1c(-c3ccccc3)nc(-c3ccccc3)c1-c1ccccc1)O[C@@H]1OC(C)(C)O[C@@H]12
IC50 (Acetylcholinesterase): > 10 µM
Ratio IC50 [3]: 1400
Ratio IC50 [4]: 1400
Ratio IC50 [5]: 1400
IC50 (Cholinesterase): 0.62 µM

CO[C@@H]1O[C@H](CNCCCCCCCn2c(-c3ccccc3)nc(-c3ccccc3)c2-c2ccccc2)[C@H]2OC(C)(C)O[C@@H]12
IC50 (Acetylcholinesterase): 2.75 µM
Ratio IC50 [6]: 90
Ratio IC50 [7]: 90
Ratio IC50 [8]: 90
Ratio IC50 [3]: 500
Ratio IC50 [4]: 500
Ratio IC50 [5]: 500
IC50 (Cholinesterase): 0.5 µM
IC50 (Vero): > 250 µM
IC50 (HepG2): > 250 µM
IC50 (C6): > 250 µM
Papp at 8 h (in vitro [1]): 2.28 ×10⁻⁶ cm/s
Fa (in vitro [2]): 20.4%

CO[C@@H]1O[C@H](CNCCCCCCn2c(-c3ccccc3)nc(-c3ccccc3)c2-c2ccccc2)[C@H]2OC(C)(C)O[C@@H]12
IC50 (Acetylcholinesterase): > 10 µM
IC50 (Cholinesterase): 0.4 µM

CC(C)NCC(O)COc1ccc(CC(N)=O)cc1 (centres undefined) [ATENOLOL]
Fa (in vitro [2]): 100%

CO/N=C(\C(=O)N[C@@H]1C(=O)N2C(C(=O)O)=C(CSc3nc(=O)c(=O)[nH]n3C)CS[C@H]12)c1csc(N)n1 [CEFTRIAXONE]
Papp at 8 h (in vitro [1]): 0.38 ×10⁻⁶ cm/s
Fa (in vitro [2]): 99.2%

O=c1ccc2ccccc2o1 [COUMARIN]
Papp at 8 h (in vitro [1]): 26.2 ×10⁻⁶ cm/s
Fa (in vitro [2]): 87.9%

CCn1cc(C(=O)O)c(=O)c2cc(F)c(N3CCNCC3)cc21 [NORFLOXACIN]
Fa (in vitro [2]): 23.5%

CNC(=C[N+](=O)[O-])NCCSCc1ccc(CN(C)C)o1 [RANITIDINE]
Fa (in vitro [2]): 87.3%
